How the values were obtained:
[1] = target: T1, recombinant human CYP isozymes (Homo sapiens, UniProt P08684); assay: metabolism by microsomes containing recombinant human CYP isozymes; type: in vitro ADME; conditions: parent to M-1 (N-dealkylation); M-1 to M-2 (oxidation); M-3 to M-4 (hydroxylation); M-2 to M-5 (conversion)
T1 construct: host or cells: Baculovirus-infected sf21 insect cells (microsomes)
Procedure: Hepatocytes were harvested from male Sprague-Dawley rat livers or human livers and cultured on a matrigel support and treated with 0.1 μM dexamethasone or 50 μM rifampicin, respectively, for 48 hr prior to the addition of the test compounds. A 2.5 mM stock solution of [^14C]2-(R)-(1-(R)-(3,5-bis(trifluoromethyl)-phenyl)ethoxy)-3-(S)-(4-fluoro)phenyl-4-(3-(5-oxo-1H,4H-1,2,4-triazolo)methylmorpholine, [^14C]M-1 or [^14C]M-2 in DMSO was added to the plates such that the final concentration of test compound was 25 μM and DMSO was 1% (v/v). The cultures were incubated for 4, 6 or 24 hr for rat hepatocytes and 48 hr for human hepatocytes. The incubation mixtures (500 μL) contained 10 μM of test compound, 100 mM phosphate buffer pH 7.4, NADPH-regenerating system, microsomes containing expressed CYP isoforms (CYP1A2, CYP2A6, CYP2B6, CYP2C8, CYP2C9, CYP2C19, CYP2D6, CYP2E1 or CYP3A4) and cytochrome P-450 reductase. The reactions were initiated by adding NADP and proceeded at 37° C. for 15-45 min. Acetonitrile extracts from microsomal and hepatocyte incubates were dissolved in 50% aqueous methanol and fractionated by HPLC. The separation was accomplished on a Zorbax RX C8 analytical column (5 μm, 4.6×250 mm). The mobile phase consisted of solvent A (10 mM ammonium acetate in water) and solvent B (7.3 mM ammonium acetate in 92.7% acetonitrile and 7.3% methanol. The column was eluted by a linear gradient from 35 to 80% B over 40 min at a flow rate of 1 mL/min. Fractions of major metabolites were subjected to LC-MS/MS analysis. Further purification was done using isocratic conditions prior to NMR analysis.
The incubation mixtures (500 μL) contained 10 or 25 μM of test compounds, 100 mM phosphate buffer pH 7.4, NADPH-regenerating system (5 mM glucose-6-phosphate, 1 mM NADP and 0.7 I.U/mL glucose 6-phosphate dehydrogenase), 0.5 to 2 mg/mL liver microsomal protein prepared from rats and humans or microsomes from Baculovirus-infected sf21 cells containing 20 to 200 pmol expressed CYP isoforms (CYP1A2, CYP2A6, CYP2B6, CYP2C8, CYP2C9, CYP2C19, CYP2D6, CYP2E1 or CYP3A4) and cytochrome P450 reductase. Stock solutions of the substrates in methanol were made such that final concentration of methanol in the reaction mixture was 3%. The reactions were initiated by adding 50 μL of 10 mM NADP and proceeded at 37° C. for 15-45 min. After incubation, the reactions were terminated by the addition of four volumes of acetonitrile. The suspensions were mixed vigorously and centrifuged at 3000×g for 5 min. The supernatants were dried and redissolved in 50% methanol for HPLC analysis using method A described below.

[2] = oxidative metabolism in liver microsomes from humans; type: in vitro ADME; conditions: human liver microsomes, 45 min
Procedure: (§1) All liver microsomal and cytosolic fractions were prepared using the following procedure. Thawed livers were homogenized with 2 volumes of 50 mM Tris-buffer (pH 7.5) containing 1.15% KCl. For microsomal and cytosolic preparations, the homogenate was centrifuged for 20 min at 9,000×g and the resulting supernatant was centrifuged for 60 min at 105,000×g. The resulting cytosolic fractions were re-centrifuged at 105,000×g for 60 min. Fractions of cytosol were aliquoted into small tubes and stored at −70° C. Subsequently, the microsomal pellets were washed with 10 mM EDTA containing 1.15% KCl and were centrifuged at 105,000×g for 60 min. Washed microsomes were resuspended in 10 mM potassium phosphate buffer (pH 7.4) containing 250 mM sucrose, aliquoted into small tubes, and stored at −70° C. Protein concentrations were determined by a modified Lowry assay (Smith et al., 1985). The specific cytochrome P450 content in each microsomal preparation was measured as described by Omura and Sato, J. Biol. Chem. 239, 2370-2378 (1964). […]
(§2) Method A was conducted on a Shimadzu HPLC system (Shimadzu Scientific Instruments Inc., Columbia Md.). The parent compounds and their metabolites were monitored directly using a radiometric detector (INUS Systems Inc. Tampa, Fla.) and Ultima-Flow M (Packard Instrument Co., Meridan Conn.) as scintillant at a flow rate of 3 mL/min. […]

[3] = oxidative metabolism in liver microsomes from rats; type: in vitro ADME; conditions: rat liver microsomes, 45 min
Procedure: as §1, §2

human NK1 receptor = target: T2, human NK1 receptor (Homo sapiens, UniProt P25103); assay: human NK1 receptor binding assay (125I-substance P, COS or CHO cells)
T2 construct: expressed in transfected cells
Procedure: To express the cloned human neurokinin-1 receptor (NKIR) transiently in COS, the cDNA for the human NKIR was cloned into the expression vector pCDM9 which was derived from pCDM8 (INVITROGEN) by inserting the ampicillin resistance gene (nucleotide 1973 to 2964 from BLUESCRIPT SK+) into the Sac II site. Transfection of 20 ug of the plasmid DNA into 10 million COS cells was achieved by electroporation in 800 ul of transfection buffer (135 mM NaCl, 1.2 mM CaCl2, 1.2 mM MgCl2, 2.4 mM K2HPO4, 0.6 mM KH2PO4, 10 mM glucose, 10 mM HEPES pH 7.4) at 260 V and 950 uF using the IBI GENEZAPPER (IBI, New Haven, Conn.). The cells were incubated in 10% fetal calf serum, 2 mM glutamine, 100U/ml penicillin-streptomycin, and 90% DMEM media (GIBCO, Grand Island, N.Y.) in 5% CO2 at 37° C. for three days before the binding assay.
To establish a stable cell line expressing the cloned human NK1R, the cDNA was subcloned into the vector pRcCMV (INVITROGEN). Transfection of 20 ug of the plasmid DNA into CHO cells was achieved by electroporation in 800 ul of transfection buffer suplemented with 0.625 mg/ml Herring sperm DNA at 300 V and 950 uF using the IBI GENEZAPPER (IBI). The transfected cells were incubated in CHO media [10 % fetal calf serum, 100 U/ml pennicilin-streptomycin, 2 mM glutamine, 1/500 hypoxanthine-thymidine (ATCC), 90% IMDM media (JRH BIOSClENCES, Lenexa, Kans.), 0.7 mg/ml G418 (GIBCO)] in 5% CO2 at 37° C. until colonies were visible. Each colony was separated and propagated. The cell clone with the highest number of human NK1R was selected for subsequent applications such as drug screening.
The binding assay of human NK1R expressed in either COS or CHO cells is based on the use of ^125I-substance P (^125I-SP, from DU PONT, Boston, Mass.) as a radioactively labeled ligand which competes with unlabeled substance P or any other ligand for binding to the human NK1R. Monolayer cell cultures of COS or CHO were dissociated by the non-enzymatic solution (SPECIALTY MEDIA, Lavallette, N.J.) and resuspended in appropriate volume of the binding buffer (50 mM Tris pH 7.5, 5 mM MnCl2, 150 mM NaCl, 0.04 mg/ml bacitracin, 0.004 mg/ml leupeptin, 0.2 mg/ml BSA, 0.01 mM phosphoramidon) such that 200 ul of the cell suspension would give rise to about 10,000 cpm of specific ^125I-SP binding (approximately 50,000 to 200,000 cells). […] The bound radioactivity was separated from unbound radioactivity by GF/C filter (BRANDEL, Gaithersburg, Md.) which was pre-wetted with 0.1 % polyethylenimine. The filter was washed with 3 ml of wash buffer (50 mM Tris pH 7.5, 5 mM MnCl2, 150 mM NaCl) three times and its radioactivity was determined by gamma counter.

T2 sequence (P25103 whole entry): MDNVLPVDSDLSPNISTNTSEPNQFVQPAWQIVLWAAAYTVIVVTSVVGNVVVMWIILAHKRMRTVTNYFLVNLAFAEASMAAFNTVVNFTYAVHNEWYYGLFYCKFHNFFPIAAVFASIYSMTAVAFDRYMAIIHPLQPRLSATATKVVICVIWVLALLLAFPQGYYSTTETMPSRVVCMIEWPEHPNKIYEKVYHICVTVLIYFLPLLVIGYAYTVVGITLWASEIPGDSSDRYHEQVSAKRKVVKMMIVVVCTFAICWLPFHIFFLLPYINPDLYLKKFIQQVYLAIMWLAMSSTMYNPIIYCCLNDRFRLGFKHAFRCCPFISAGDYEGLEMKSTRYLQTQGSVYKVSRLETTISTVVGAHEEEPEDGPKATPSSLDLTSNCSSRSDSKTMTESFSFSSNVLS
T1 sequence (P08684 2-503 limits assumed): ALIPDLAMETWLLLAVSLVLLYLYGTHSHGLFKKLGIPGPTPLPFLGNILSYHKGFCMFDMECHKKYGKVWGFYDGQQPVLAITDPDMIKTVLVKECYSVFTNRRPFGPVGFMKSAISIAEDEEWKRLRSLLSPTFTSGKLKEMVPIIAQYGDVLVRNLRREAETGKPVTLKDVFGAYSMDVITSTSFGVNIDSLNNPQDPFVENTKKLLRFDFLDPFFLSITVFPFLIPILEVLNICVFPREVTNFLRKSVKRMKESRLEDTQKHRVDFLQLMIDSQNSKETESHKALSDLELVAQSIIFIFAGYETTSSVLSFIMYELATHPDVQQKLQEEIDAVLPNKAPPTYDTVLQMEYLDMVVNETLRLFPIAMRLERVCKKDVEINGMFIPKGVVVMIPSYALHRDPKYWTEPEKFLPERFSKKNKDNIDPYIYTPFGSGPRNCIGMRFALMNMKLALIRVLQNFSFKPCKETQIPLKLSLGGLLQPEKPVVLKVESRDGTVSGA

CYP isozyme primarily responsible for the metabolic step [1] | conversion in microsomes in the presence of an NADPH regenerating system [2] | conversion in microsomes in the presence of an NADPH regenerating system [3] | IC50 (human NK1 receptor) | Compound
CYP3A4 | < 2% | < 2% |  | C[C@@H](O[C@H]1OCCN(Cc2n[nH]c(=O)[nH]2)[C@H]1c1ccc(F)cc1)c1cc(C(F)(F)F)cc(C(F)(F)F)c1 [Parent Compound, 5-[[(2R,3S)-2-[(1R)-1-[3,5-bis(trifluoromethyl)phenyl]ethoxy]-3-(4-fluorophenyl)4-morpholinyl]methyl]-1,2-dihydro-3H-1,2,4-triazol-3-one, reference compound]
 |  |  | 18 nM | C[C@@H](O[C@@H](OCC(=O)O)C(O)c1ccc(F)cc1)c1cc(C(F)(F)F)cc(C(F)(F)F)c1 (stereo partly drawn) [Metabolite M-6, [(1R)-1-[(1R)-1-[3,5-bis(trifluoromethyl)phenyl]ethoxy]-2-(4-fluorophenyl)-2-hydroxyethoxy]acetic acid]
CYP3A4 |  |  | ~10 nM | C[C@@H](O[C@H]1OCCN=C1c1ccc(F)cc1)c1cc(C(F)(F)F)cc(C(F)(F)F)c1 [Metabolite M-2, (2R)-2-[(1R)-1-[3,5-bis(trifluoromethyl)phenyl]ethoxy]-3-(4-fluorophenyl)-5,6-dihydro-2H-1,4-oxazine]
CYP3A4 |  |  | 4 nM | C[C@@H](O[C@H]1OCC(=O)N[C@H]1c1ccc(F)cc1)c1cc(C(F)(F)F)cc(C(F)(F)F)c1 [Metabolite M-3, (5S,6R)-6-[(1R)-1-[3,5-bis(trifluoromethyl)phenyl]ethoxy]-5-(4-fluorophenyl)-3-morpholinone]
